ChEMBL document CHEMBL1152326, “Anti-inflammatory sesquiterpenoids from a sponge-derived Fungus Acremonium sp” (J Nat Prod, 2009)
The source made the active and inactive calls. No cut-off for these calls is given here.

Key:
[1] = test system: RAW264.7; assay: Antiinflammatory activity in mouse RAW264.7 cells assessed as inhibition of LPS-induced nitric oxide production at 100 uM after 24 hrs by Griess reagent method relative to control; format: functional, cell-based
[2] = test system: RAW264.7; assay: Antiinflammatory activity in mouse RAW264.7 cells assessed as inhibition of LPS-induced TNFalpha production at 100 uM after 24 hrs by ELISA relative to control; format: functional, cell-based

Structure (SMILES)	Activity [1]	Activity [2]
C/C(=C\Cc1c(O)c(Cl)c(C)c(C=O)c1O)CC/C=C(\C)[C@@H]1CC(=O)C(C)(C)O1	Active	Active
C/C(=C\Cc1c(O)cc(C)c(C=O)c1O)CC[C@@]1(C)[C@H](C)CCC(=O)[C@@H]1C	Active	
C/C(=C\Cc1c(O)c(Cl)c(C)c(C=O)c1O)CC[C@@]1(C)[C@H](C)CCC(=O)[C@@H]1C	Active	
CC(/C=C/[C@@]1(C)[C@H](C)CCC(=O)[C@@H]1C)=C\Cc1c(O)c(Cl)c(C)c(C=O)c1O	Active	Active
